Results: article PMC7355972, “Flavonoids in Decorticated Sorghum Grains Exert Antioxidant, Antidiabetic and Antiobesity Activities” (Molecules, 2020)

What was measured:
[1] = system: advanced glycation end-products (AGEs) formation; assay: Inhibition of protein glycation (BSA/D-glucose, fluorescent AGEs); details: BSA + D-glucose, 37 °C for a week
Procedure: The procedure by Sekhon-Loodu and Rupasinghe was adapted with slight modification. Bovine serum albumin (BSA), D-glucose and aminoguanidine were dissolved in 0.2 M phosphate buffer saline (pH 7.4) containing sodium azide (0.02% w/v). Equal volumes containing BSA (5.0 mg/mL) and D-glucose (36 mg/mL) and the negative control or the test samples or aminoguanidine at different concentrations (0.01, 0.02, 0.04, 0.05, 0.1, 0.2, 0.5 and 1.0 mg/mL) were added to reach a final volume of 1.0 mL. Aminoguanidine, a known AGE formation inhibitor, was used as the positive control. The mixtures in Eppendorf tubes were incubated in triplicate at 37 °C for a week. Fluorescent AGEs were measured using a microplate reader at 340 nm excitation and 420 nm emission wavelengths. Experiments were conducted in triplicates. The percentage of the AGE inhibition was calculated as shown below:(3) Inhibition (%)=[1−(Fluorescent of the test/Fluorescent of control)]×100
The results were expressed in terms of IC50 representing the concentration of test extracts required to cause the inhibition of AGE formation by 50%.

[2] = DPPH radical scavenging activity; details: soluble (70% ethanol) extracts; 30 min, 517 nm
Procedure: The method previously described by Ofosu et al. was used to measure DPPH radical scavenging by ethanol extracts using a 24-well microplate reader. Briefly, 200 μL sample extracts of various concentrations were added to 2 mL freshly made DPPH radical solution (100 μM). After 30 min incubation at room temperature, absorbance was read at 517 nm.

[3] = ABTS radical scavenging activity; details: soluble (70% ethanol) extracts; 734 nm
Procedure: The ABTS radical scavenging assay described by Ofosu et al. was used. ABTS^+ stock solution was prepared by reacting equal volumes of 7 mM ABTS solution with 2.45 mM potassium persulfate solution in the dark at room temperature for 16 h. Using ethanol, the ABTS+ stock solution was diluted to obtain an absorbance of approximately 0.70 at 734 nm. Appropriately, 80 μL sample extracts of various concentrations were added to 1 mL freshly prepared ABTS+ radical solution, and the absorbance was read at 734 nm.

| DPPH radical scavenging activity IC50 [2] | ABTS radical scavenging activity IC50 [3] | Compound | AGEs formation inhibitory activity IC50 [1] |
| --- | --- | --- | --- |
|  |  | N=C(N)NN [aminoguanidine] | 52.30 µg/mL |
| 48.7 ± 2.19 µg/mL | 74.60 ± 1.45 µg/mL | Cc1c(C)c2c(c(C)c1O)CCC(C)(C(=O)O)O2 (stereo not drawn) [Trolox, 6-hydroxy-2,5,7,8-tetramethylchromane-2-carboxylic acid] |  |
